Assay results reported in paper PMC9598656, “In Vitro Activity of Robenidine Analogues NCL259 and NCL265 against Gram-Negative Pathogens” (Antibiotics, 2022).
Peptide text beside a SMILES is read from it. * marks the point of attachment. βNA = c1ccc2cc(N*)ccc2c1

Experiments:
[1] = tested on: K. pneumoniae 13GNB–429; assay: Checkerboard assay with PAβN; type: cell-based, Klebsiella pneumoniae; settings: for concentration at the marked interaction: resazurin
Experimental: (§1) MICs of NCL259 or NCL265 in the presence of the efflux pump inhibitor, PAβN were determined using a checkerboard assay. […] Briefly, a two-fold serial dilution of each antimicrobial solution was prepared in its appropriate solvent (e.g., DMSO for robenidine analogues and Milli-Q water for PAβN), and 1 μL of each dilution was added from wells 12 to 3 (12.8–0.25 μg/mL for robenidine analogues, and 32–2 μg/mL for PAβN). Thereafter, 89 μL of LB broth was added to each well followed by the addition of 10 μL of bacterial suspension (1–5 × 10^6 CFU/mL) to each well. In this manner, the final concentration of DMSO in each well was 1%. The plate was subsequently incubated at 37 °C for 24 h. The resazurin assay was used for assessment of drug susceptibility of NCL259 and NCL265 (Supplementary Table S1–S6). The same method was also used to test the MICs of NCL259 or NCL265 in the presence of PMB against a range of Gram-negative reference strains (E. coli ATCC 25922, E. coli ATCC 10763, P. aeruginosa PAO1, P. aeruginosa ATCC 27853, A. baumannii ATCC 12457, A. baumannii ATCC 19606, K. pneumoniae ATCC 4352 and K. pneumoniae ATCC 33495). Stock solutions were prepared prior to use (25.6–0.25 mg/mL for robenidine analogues; 12.8–0.25 mg/mL for PMB). The interaction of two antibiotics was calculated as the fractional inhibitory concentration index (FICI) using the following formula:(1) FICI=MICA in combination/MICA alone+MICB in combination/MICB alone where A is NCL259 or NCL265 and B is PAβN or PMB. According to FICI calculations, the interaction between two compounds were interpreted as follows: synergistic (FICI ≤ 0.5); additive or partially synergistic (0.5 < FICI ≤ 1); indifferent (1 < FICI ≤ 4); and antagonistic (FICI > 4), as described previously. The dose reduction index (DRI) was used to describe the difference between the effective doses of NCL259 or NCL265 in combination with PMB or PAβN in comparison to their individual doses, using the following formula:(2) DRI=MICA alone/MICA in combination
(§2) Evaluation of DRI is important clinically because it can allow the dose of a potentially toxic drug to be lowered in combination with another compound without reducing the drug’s efficacy. A DRI higher than 1 is viewed as beneficial.

[2] = tested on: K. pneumoniae 13GNB–550; assay: Checkerboard assay with PAβN; type: cell-based, Klebsiella pneumoniae; settings: for concentration at the marked interaction: resazurin
Experimental: as §1, §2

[3] = tested on: K. pneumoniae 13GNB–429; assay: MIC, broth micro-dilution; type: cell-based; settings: Klebsiella pneumoniae, read-out: MIC, Single Drug
Experimental: (§3) MICs for NCL259 and NCL265 (serial two-fold dilutions commencing at 256 µg/mL) were determined (in duplicate) in round bottom 96–well microtitre trays (Sarstedt 82.1582.001), using the broth micro-dilution method recommended by the Clinical and Laboratory Standards Institute (CLSI). We have shown previously that robenidine can chelate calcium ions from cation-adjusted Mueller-Hinton broth, which causes the loss of activity of robenidine. Therefore, LB broth was used in this study. Additionally, considering the low solubility of robenidine and its analogues in aqueous solutions, two-fold serial dilutions of stock solutions of these compounds were prepared in 100% DMSO [21]. The MIC for ampicillin against each isolate was determined for each test to serve as an internal quality control. The MICs of isolates were determined by visual reading and using an EnSpire Multimode Plate Reader 2300 at A600nm.
as §1

[4] = tested on: K. pneumoniae 13GNB–550; assay: MIC, broth micro-dilution; type: cell-based; settings: Klebsiella pneumoniae, read-out: MIC, Single Drug
Experimental: as §3, §1

[5] = tested on: K. oxytoca 13GNB–582; assay: MIC, broth micro-dilution; type: cell-based; settings: Klebsiella oxytoca, read-out: MIC, Single Drug
Experimental: as §3, §1

[6] = tested on: K. oxytoca 13GNB–582; assay: Checkerboard assay with PAβN; type: cell-based; settings: for concentration at the marked interaction: resazurin
Experimental: as §1, §2

[7] = tested on: P. aeruginosa ATCC 27853; assay: Checkerboard assay with PMB; type: cell-based, Pseudomonas aeruginosa
Experimental: as §1, §2

[8] = tested on: P. aeruginosa PAO1; assay: Checkerboard assay with PMB; type: cell-based, Pseudomonas aeruginosa
Experimental: as §1, §2

[9] = tested on: K. pneumoniae ATCC 33495; assay: MIC, broth micro-dilution; type: cell-based, Klebsiella pneumoniae; settings: K. pneumoniae ATCC 33495
Experimental: (§4) A variety of Gram-negative reference strains (E. coli ATCC 25922, E. coli ATCC 10763, P. aeruginosa PAO1, P. aeruginosa ATCC 27853, A. baumannii ATCC 12457, A. baumannii ATCC 19606, K. pneumoniae ATCC 4352 and K. pneumoniae ATCC 33495) were used for initial screening and combination testing with PMB. The organisms were speciated using biochemical testing and MALDI-TOF mass spectrometry (Bruker, Preston, VIC, Australia). Activity testing of NCL259 and NCL265 was also carried out on 51 extraintestinal clinical E. coli isolates from companion animals, and 83 porcine and bovine enterotoxigenic E. coli (ETEC) isolates from the Australian Centre for Antimicrobial Resistance Ecology collection. E. coli wild-type (BW 25113) and its mutant BW 25113∆AcrB, in which the inner membrane component AcrB of the tripartite multidrug efflux system AcrA/AcrB/TolC has been deleted, were obtained from the bacterial collection held at Health and Biomedical Innovation, Clinical and Health Sciences, The University of South Australia. All isolates were cultured on sheep blood agar (SBA) plates at 37 °C for 18 h before being subcultured into Luria Bertaini (LB) (Oxoid, Scoresby, VIC, Australia) broth and grown to A600nm = 0.5 (equivalent to approx. 1.5 × 10^8 colony-forming units (CFU)/mL).
as §3

[10] = tested on: K. pneumoniae ATCC 4352; assay: MIC, broth micro-dilution; type: cell-based, Klebsiella pneumoniae
Experimental: as §4, §3

[11] = tested on: E. coli ATCC 25922; assay: MIC, broth micro-dilution; type: cell-based, Escherichia coli
Experimental: as §4, §3

[12] = tested on: E. coli ATCC 10763; assay: MIC, broth micro-dilution; type: cell-based, Escherichia coli; settings: E. coli ATCC 10763
Experimental: as §4, §3

[13] = tested on: P. aeruginosa ATCC 27853; assay: MIC, broth micro-dilution; type: cell-based, Pseudomonas aeruginosa
Experimental: as §4, §3

[14] = tested on: P. aeruginosa PAO1; assay: MIC, broth micro-dilution; type: cell-based, Pseudomonas aeruginosa
Experimental: as §4, §3

[15] = tested on: E. coli ATCC 25922; assay: Checkerboard assay with PMB; type: cell-based, Escherichia coli
Experimental: as §1, §2

[16] = tested on: E. coli ATCC 10763; assay: Checkerboard assay with PMB; type: cell-based, Escherichia coli
Experimental: as §1, §2

[17] = tested on: A. baumannii ATCC 12457; assay: Checkerboard assay with PMB; type: cell-based, Acinetobacter baumannii
Experimental: as §1, §2

[18] = tested on: A. baumannii ATCC 19606; assay: Checkerboard assay with PMB; type: cell-based, Acinetobacter baumannii
Experimental: as §1, §2

[19] = tested on: A. baumannii ATCC 12457; assay: MIC, broth micro-dilution; type: cell-based, Acinetobacter baumannii
Experimental: as §4, §3

[20] = tested on: A. baumannii ATCC 19606; assay: MIC, broth micro-dilution; type: cell-based, Acinetobacter baumannii
Experimental: as §4, §3

[21] = tested on: K. pneumoniae ATCC 33495; assay: Checkerboard assay with PMB; type: cell-based, Klebsiella pneumoniae
Experimental: as §1, §2

[22] = tested on: K. pneumoniae ATCC 4352; assay: Checkerboard assay with PMB; type: cell-based, Klebsiella pneumoniae
Experimental: as §1, §2

`NC(N)=NCCC[C@H](NC(=O)[C@@H](N)Cc1ccccc1)C(=O)Nc1ccc2ccccc2c1` [PAβN, phenylalanine-arginine-beta-naphthylamide, reference compound] (H-Phe-Arg-βNA) was tested, and the “DRI PAβN:NCL259” value ([1]; K. pneumoniae 13GNB–429) was 4, the “DRI PAβN:NCL265” value ([1]; K. pneumoniae 13GNB–429) was 2 and the “MIC, Combination” value ([1]; K. pneumoniae 13GNB–429, PAβN + NCL259) was 16 µg/mL. For the same compound, the “MIC, Combination” value ([1]; K. pneumoniae 13GNB–429, PAβN + NCL265) was 32 µg/mL, the “concentration at the marked interaction” value ([1]; Table S1, NCL259 + PAβN, replicate 1) was 8 µg/mL and the “concentration at the marked interaction” value ([1]; Table S1, NCL259 + PAβN, replicate 2) was 8 µg/mL. The “concentration at the marked interaction” value ([1]; Table S4, NCL265 + PAβN, replicate 1) was 8 µg/mL, the “concentration at the marked interaction” value ([1]; Table S4, NCL265 + PAβN, replicate 2) was 4 µg/mL and the “DRI PAβN:NCL259” value ([2]; K. pneumoniae 13GNB–550) was 2. The “DRI PAβN:NCL265” value ([2]; K. pneumoniae 13GNB–550) was 2, the “MIC, Combination” value ([2]; K. pneumoniae 13GNB–550, PAβN + NCL259) was 32 µg/mL and the “MIC, Combination” value ([2]; K. pneumoniae 13GNB–550, PAβN + NCL265) was 32 µg/mL. For the same compound, the “concentration at the marked interaction” value ([2]; Table S2, NCL259 + PAβN, replicate 1) was 16 µg/mL, the “concentration at the marked interaction” value ([2]; Table S2, NCL259 + PAβN, replicate 2) was 8 µg/mL and the “concentration at the marked interaction” value ([2]; Table S5, NCL265 + PAβN, replicate 1) was 8 µg/mL. The “concentration at the marked interaction” value ([2]; Table S5, NCL265 + PAβN, replicate 2) was 8 µg/mL, the MIC [3] was over 32 µg/mL and the MIC [4] was over 32 µg/mL. The MIC [5] was over 32 µg/mL, the “DRI PAβN:NCL259” value ([6]; K. oxytoca 13GNB–582) was 4 and the “DRI PAβN:NCL265” value ([6]; K. oxytoca 13GNB–582) was 2. The “MIC, Combination” value ([6]; K. oxytoca 13GNB–582, PAβN + NCL259) was 16 µg/mL, the “MIC, Combination” value ([6]; K. oxytoca 13GNB–582, PAβN + NCL265) was 32 µg/mL and the “concentration at the marked interaction” value ([6]; Table S3, NCL259 + PAβN, replicate 1) was 8 µg/mL. The “concentration at the marked interaction” value ([6]; Table S3, NCL259 + PAβN, replicate 2) was 8 µg/mL, the “concentration at the marked interaction” value ([6]; Table S6, NCL265 + PAβN, replicate 1) was 8 µg/mL and the “concentration at the marked interaction” value ([6]; Table S6, NCL265 + PAβN, replicate 2) was 8 µg/mL.
For polymyxin B [PMB, reference compound], the “MIC, Combination” value ([7]; NCL259 or NCL265 with PMB) was 0.5 µg/mL, the “Dose Reduction Index (DRI) PMB:NCL259” value ([7]; PMB + NCL259) was 2 and the “Dose Reduction Index (DRI) PMB:NCL265” value ([7]; PMB + NCL265) was 2. For the same compound, the “MIC, Combination” value ([8]; NCL259 or NCL265 with PMB) was 0.5 µg/mL, the “Dose Reduction Index (DRI) PMB:NCL259” value ([8]; PMB + NCL259) was 2 and the “Dose Reduction Index (DRI) PMB:NCL265” value ([8]; PMB + NCL265) was 2. For the same compound, the “MIC, Single Drug” value [9] was 1 µg/mL, the “MIC, Single Drug” value [10] was 1 µg/mL and the “MIC, Single Drug” value [11] was 0.5 µg/mL. For the same compound, the “MIC, Single Drug” value [12] was 1 µg/mL, the “MIC, Single Drug” value [13] was 1 µg/mL and the “MIC, Single Drug” value [14] was 1 µg/mL. The “MIC, Combination” value ([15]; NCL259 or NCL265 with PMB) was 0.25 µg/mL, the “Dose Reduction Index (DRI) PMB:NCL259” value ([15]; PMB + NCL259) was 2 and the “Dose Reduction Index (DRI) PMB:NCL265” value ([15]; PMB + NCL265) was 2. For the same compound, the “Dose Reduction Index (DRI) PMB:NCL259” value ([16]; PMB + NCL259) was 2, the “Dose Reduction Index (DRI) PMB:NCL265” value ([16]; PMB + NCL265) was 4 and the “MIC, Combination” value ([17]; NCL259 or NCL265 with PMB) was 0.5 µg/mL. For the same compound, the “Dose Reduction Index (DRI) PMB:NCL259” value ([17]; PMB + NCL259) was 2, the “Dose Reduction Index (DRI) PMB:NCL265” value ([17]; PMB + NCL265) was 2 and the “MIC, Combination” value ([18]; NCL259 or NCL265 with PMB) was 0.5 µg/mL. For the same compound, the “Dose Reduction Index (DRI) PMB:NCL259” value ([18]; PMB + NCL259) was 2, the “Dose Reduction Index (DRI) PMB:NCL265” value ([18]; PMB + NCL265) was 2 and the “MIC, Single Drug” value [19] was 1 µg/mL. For the same compound, the “MIC, Single Drug” value [20] was 1 µg/mL, the “Dose Reduction Index (DRI) PMB:NCL259” value ([21]; PMB + NCL259) was 2 and the “Dose Reduction Index (DRI) PMB:NCL265” value ([21]; PMB + NCL265) was 4. The “MIC, Combination” value ([22]; NCL259 or NCL265 with PMB) was 0.25 µg/mL, the “Dose Reduction Index (DRI) PMB:NCL259” value ([22]; PMB + NCL259) was 4 and the “Dose Reduction Index (DRI) PMB:NCL265” value ([22]; PMB + NCL265) was 4:4.
